Measured values reported in PMC2228302, “Crystal structure of Leishmania tarentolae hypoxanthine-guanine phosphoribosyltransferase” (BMC Structural Biology, 2007).
pIC50: −log10 of the molar value.

What follows are molecules tested against Leishmania HGPRT (Leishmania tarentolae, UniProt Q9NJI5, D188E/G191E/H176R/L189Y/T185D/V183G/V192L/W184M) (assay: biochemical). Settings: IC50, Leishmania HGPRT; approximate value stated in text.
Procedure: The HGPRT enzyme inhibition assay was performed for 1 min in a 1 ml reaction volume containing 100 mM Tris-HCl, 5 mM MgSO4, 1 mM PRPP, 0.04 mM guanine at pH 7.4 [41]. An extinction coefficient of 4.2 was used.
With `Oc1ncnc2[nH]ncc12` [allopurinol] the pIC50 was about 3.70.

Same assay, conditions: IC50, recombinant L. tarentolae HGPRT; 1 min, 1 mM PRPP, 0.04 mM guanine, pH 7.4; six inhibitor concentrations in triplicate
In the case of `Nc1nc2c(nc(N)n2[C@@H]2O[C@H](CO)[C@@H](O)[C@H]2O)c(=O)[nH]1` [8-aminoguanosine], the pIC50 was 4.03.
Work on `CO/N=C(\C(=O)N[C@@H]1C(=O)N2C(C(=O)O)=C(COC(C)=O)CS[C@H]12)c1csc(N)n1` [cefotaxime] yielded a pIC50 of 3.74.
For `O=C(O)c1cc(=O)[nH]c(=O)[nH]1` [Orotic acid], the pIC50 was 3.36.
With `Oc1ncnc2[nH]ncc12` [allopurinol] the pIC50 was 3.71.

Same assay, conditions: recombinant L. tarentolae HGPRT; 1 min, 1 mM PRPP, 0.04 mM guanine, pH 7.4; six inhibitor concentrations in triplicate; read-out: IC50
`O=c1[nH]cnc2c([C@@H]3O[C@H](CO)[C@@H](O)[C@H]3O)n[nH]c12` [formicin B] gave a pIC50 of 3.59.
Molecule `O=c1[nH]c(=O)n([C@H]2C[C@H](O)[C@@H](CO)O2)cc1Br` [5-bromodeoxiuridine] has a pIC50 of 3.46.
azaadenine gave a pIC50 of 3.68.
In the case of `Nc1ncnc2c1ccn2[C@@H]1O[C@H](CO)[C@@H](O)[C@H]1O` [tubercidine], the pIC50 was 3.27.
Molecule `Nc1nc(Cl)c2[nH]cnc2n1` [6-cloroguanine] has a pIC50 of 3.08.
Work on `Cc1cnc(=O)[nH]c1N` [5-metilcitosine] yielded a pIC50 of 3.39.

What follows are molecules tested against Leishmania tarentolae hypoxanthine-guanine phosphoribosyltransferase (Leishmania tarentolae) (assay: crystal structure; co-crystallized with GMP in 19% PEG 4000, 20.6% isopropanol, 5% glycerol, 95 mM tri-sodium citrate, pH 5.6; space group P212121; two monomers (chains A and B) in the asymmetric unit; 2.1 Å). Settings: not given.
“Leishmania tarentolae hypoxanthine-guanine phosphoribosyltransferase (enzyme)” showed a stoichiometry N of 2.
